Data taken from patent US20220002427A1, “BISPECIFIC ANTIBODY AGAINST BCMA AND CD3 AND AN IMMUNOLOGICAL DRUG FOR COMBINED USE IN TREATING MULTIPLE MYELOMA” (ENGMAB SARL, priority 2016, published 2022).

System: H929 MM cells
Assay: H929 MM cell lysis with TCB alone or combined with lenalidomide, anti-PD-1 or daratumumab (co-culture with human leukocytes, flow cytometry)
Type: cell-based
Conditions: H929 cells + leucocytes of Donor 1, 48 h
Text: FIGS. 21A-21B. Redirected T-cell lysis of H929 MM cells induced by anti-BCMA/anti-CD3 T-cell bispecific antibodies in combination with thalidomide derivatives (lenalidomide) or immunotherapeutic derivatives (anti-PD1 and anti-CD38 antibodies) as measured by flow cytometry. H929 MM cells were co-cultured with human leukocytes (n=1 or 5) and challenged to suboptimal concentrations of anti-BCMA/anti-CD3 T-cell bispecific antibody 83A10-TCcv (10 pM) (FIG. 21A) or 42-TCBcv (10 pM) (FIG. 21B) alone, in combination with suboptimal concentrations of lenalidomide (1 μM), anti-PD-1 (10 μg/ml) and anti-CD38 daratumumab (10 μg/ml).
Anti-BCMA/anti-CD3 T-cell bispecific antibody (namely 83A10-TCBcv or 42-TCBcv) was combined with three drugs representing different types of immunotherapy: lenalidomide, anti-PD-1 antibody and anti-CD38 antibody daratumumab. H929 MM cells were co-cultured with human leukocytes from healthy donors (n=1 or 5) in RPMI-1640 medium supplemented with 10% FBS, 0.5% gentamincin and 1% L-Glutamine at 37° C. in a humidified 5% CO2 incubator and challenged to suboptimal concentrations of 83A10-TCBcv (10 pM) (n=5) or 42-TCBcv (10 pM) (n=1) alone, or in combination with lenalidomide (1 μM), anti-PD-1 antibody (10 μg/ml) and anti-CD38 antibody daratumumab (10 μg/ml). […] FIG. 21B and Table 28 show the percentage of MM cell lysis when H929 cells and leucocytes from one healthy donor were exposed to 42-TCBcv (10 pM) combined with lenalidomide (1 μM), anti-PD-1 antibody (10 μg/ml) and anti-CD38 antibody daratumumab (10 μg/ml) for 48 h of culture.

[1] = with TCB (combination with 42-TCBcv)

Work on `Nc1cccc2c1CN(C1CCC(=O)NC1=O)C2=O` (stereo not shown) [lenalidomide] yielded an MM cell lysis [1] of 13.27% and an MM cell lysis (without TCB) of −1.78%.

“Daratumumab: anti-CD38 antibody (US20150246123)” showed an MM cell lysis [1] of 42.29% and an MM cell lysis (without TCB) of 33.06%.
